Biological target: T1, interaction between biotinylated human S100A9 and human RAGE-Fc (Homo sapiens, UniProt P06702)
T1 construct: made in house; host or cells: E. coli BL21(DE3)/pET1120 (pLR757)
T1 sequence (P06702 1-114): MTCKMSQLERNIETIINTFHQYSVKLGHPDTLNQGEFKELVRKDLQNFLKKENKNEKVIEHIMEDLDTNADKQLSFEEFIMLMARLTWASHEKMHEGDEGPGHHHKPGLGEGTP
Test: AlphaScreen inhibition assay, Biot-hS100A9:hRAGE-Fc (S100A9-RAGE inhibition assay)
Format: binding
Conditions: biot-hS100A9 and rhRAGE-Fc, Ca2+ and Zn2+ in buffer
Summary of the method: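 Biotinylated human S100A9, in HBS-P with CaCl2 and ZnCl2, preincubated 1 h at room temperature in the dark with compound (final DMSO ≤1.25%), then combined with rhRAGE-Fc on protein A Acceptor beads plus streptavidin Donor beads (20 μg/mL each). Protein levels batch-dependent; percent inhibition from AlphaScreen signal vs DMSO-only control.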

Row | SMILES | IC50
1 | COc1ccc(-c2cccc3c2nc2n3C(NC(=O)CCC3CCCC3)(C(F)(F)F)C(=O)N2)cn1 (stereo not drawn) [Example 188, 3-cyclopentyl-N-[9-(6-methoxypyridin-3-yl)-4-oxo-3-(trifluoromethyl)-2,5,7-triazatricyclo[6.4.0.0^2,6]dodeca-1(12),6,8,10-tetraen-3-yl]propanamide] | 940 nM
2 | O=C(CCC1CCCC1)NC1(C(F)(F)F)C(=O)Nc2nc3c(-c4ccc([N+](=O)[O-])cc4)cccc3n21 (stereo not drawn) [Example 193, 3-cyclopentyl-N-[9-(4-nitrophenyl)-4-oxo-3-(trifluoromethyl)-2,5,7-triazatricyclo[6.4.0.0^2,6]dodeca-1(12),6,8,10-tetraen-3-yl]propanamide] | 1560 nM
3 | O=C(CCC1CCCC1)NC1(C(F)(F)F)C(=O)Nc2nc3c(-c4nnn[nH]4)cccc3n21 (stereo not drawn) [Example 199, 3-cyclopentyl-N-[4-oxo-9-(1H-1,2,3,4-tetrazol-5-yl)-3-(trifluoromethyl)-2,5,7-triazatricyclo[6.4.0.0^2,6]dodeca-1(12),6,8,10-tetraen-3-yl]propanamide] | 920 nM
4 | Cc1cc2nc3n(c2cc1C)C(NC(=O)c1ccc(Cl)nc1)(C(F)(F)F)C(=O)N3 (stereo not drawn) [Example 28, 6-chloro-N-[10,11-dimethyl-4-oxo-3-(trifluoromethyl)-2,5,7-triazatricyclo[6.4.0.0^2,6]-dodeca-1(12),6,8,10-tetraen-3-yl]pyridine-3-carboxamide] | 3700 nM
5 | O=C(NC1(C(F)(F)F)C(=O)Nc2nc3cc(Cl)c(Cl)cc3n21)c1cccc(Cl)n1 (stereo not drawn) [Example 62, 6-chloro-N-[10,11-dichloro-4-oxo-3-(trifluoromethyl)-2,5,7-triazatricyclo[6.4.0.0^2,6]-dodeca-1(12),6,8,10-tetraen-3-yl]pyridine-2-carboxamide] | 1100 nM
6 | O=C(CCC1CCCC1)NC1(C(F)(F)F)C(=O)Nc2nc3cc(F)c(F)cc3n21 (stereo not drawn) [Example 73, 3-cyclopentyl-N-[10,11-difluoro-4-oxo-3-(trifluoromethyl)-2,5,7-triazatricyclo-[6.4.0.0^2,6]dodeca-1(12),6,8,10-tetraen-3-yl]propanamide] | 2800 nM
7 | Cc1cc2nc3n(c2cc1C)C(NC(=O)c1ccc(OCC(F)(F)F)nc1)(C(F)(F)F)C(=O)N3 (stereo not drawn) [Example 21, N-[10,11-dimethyl-4-oxo-3-(trifluoromethyl)-2,5,7-triazatricyclo[6.4.0.0^2,6]dodeca-1(8),6,9,11-tetraen-3-yl]-6-(2,2,2-trifluoroethoxy)pyridine-3-carboxamide] | 4000 nM
8 | O=C(NC1(C(F)(F)F)C(=O)Nc2nc3cc(Cl)c(Cl)cc3n21)c1cccc(NCCO)n1 (stereo not drawn) [Example 91, N-[10,11-dichloro-4-oxo-3-(trifluoromethyl)-2,5,7-triazatricyclo[6.4.0.0^2,6]dodeca-1(8),6,9,11-tetraen-3-yl]-6-[(2-hydroxyethyl)amino]pyridine-2-carboxamide] | 260 nM
9 | O=C(CCN1CCOCC1)NC1(C(F)(F)F)C(=O)Nc2nc3cc(Cl)c(Cl)cc3n21 (stereo not drawn) [Example 61, N-[10,11-dichloro-4-oxo-3-(trifluoromethyl)-2,5,7-triazatricyclo[6.4.0.0^2,6]dodeca-1(12),6,8,10-tetraen-3-yl]-3-(morpholin-4-yl)propanamide] | 2900 nM
10 | Cc1cc2nc3n(c2cc1C)C(NC(=O)CC1CCCCC1)(C(F)(F)F)C(=O)N3 (stereo not drawn) [Example 20, 2-cyclohexyl-N-[10,11-dimethyl-4-oxo-3-(trifluoromethyl)-2,5,7-triazatricyclo-[6.4.0.0^2,6]dodeca-1(8),6,9,11-tetraen-3-yl]acetamide] | 1700 nM
11 | O=C(NC1(C(F)(F)F)C(=O)Nc2nc3cc(Cl)c(Cl)cc3n21)C1CCCC1 (stereo not drawn) [Example 54, N-[10,11-dichloro-4-oxo-3-(trifluoromethyl)-2,5,7-triazatricyclo[6.4.0.0^2,6]dodeca-1(12),6,8,10-tetraen-3-yl]cyclopentanecarboxamide] | 1600 nM
12 | CCCC(=O)NC1(C(F)(F)F)C(=O)Nc2nc3c(-c4ccc(OC)cc4)cccc3n21 (stereo not drawn) [Example 234, N-[9-(4-methoxyphenyl)-4-oxo-3-(trifluoromethyl)-2,5,7-triazatricyclo[6.4.0.0^2,6]dodeca-1(12),6,8,10-tetraen-3-yl]butanamide] | 920 nM
13 | O=C(NC1(C(F)(F)F)C(=O)Nc2nc3cc(Cl)c(Cl)cc3n21)C1CCCCC1 (stereo not drawn) [Example 55, N-[10,11-dichloro-4-oxo-3-(trifluoromethyl)-2,5,7-triazatricyclo[6.4.0.0^2,6]dodeca-1(12),6,8,10-tetraen-3-yl]cyclohexanecarboxamide] | 1700 nM
14 | COc1cc2nc3n(c2cc1OC)C(NC(=O)CCC1CCCC1)(C(F)(F)F)C(=O)N3 (stereo not drawn) [Example 76, 3-cyclopentyl-N-[10,11-dimethoxy-4-oxo-3-(trifluoromethyl)-2,5,7-triazatricyclo-[6.4.0.0^2,6]dodeca-1(12),6,8,10-tetraen-3-yl]propanamide] | 11400 nM
15 | O=C(NC1(C(F)(F)F)C(=O)Nc2nc3cc(Cl)c(Cl)cc3n21)c1cccc(CO)n1 (stereo not drawn) [Example 97, N-[10,11-dichloro-4-oxo-3-(trifluoromethyl)-2,5,7-triazatricyclo[6.4.0.0^2,6]dodeca-1(8),6,9,11-tetraen-3-yl]-6-(hydroxymethyl)pyridine-2-carboxamide] | 190 nM
16 | O=C(NC1(C(F)(F)F)C(=O)Nc2nc3cc(Cl)c(Cl)cc3n21)c1ccccc1 (stereo not drawn) [Example 38, N-[10,11-dichloro-4-oxo-3-(trifluoromethyl)-2,5,7-triazatricyclo[6.4.0.0^2,6]dodeca-1(8),6,9,11-tetraen-3-yl]benzamide] | 1000 nM
17 | O=C(CCC1CCCC1)NC1(C(F)(F)F)C(=O)Nc2nc3c(F)c(Br)ccc3n21 (stereo not drawn) [Example 177, N-[10-bromo-9-fluoro-4-oxo-3-(trifluoromethyl)-2,5,7-triazatricyclo[6.4.0.0^2,6]dodeca-1(12),6,8,10-tetraen-3-yl]-3-cyclopentylpropanamide] | 1630 nM
18 | Cc1cc2nc3n(c2cc1C)C(NC(=O)c1ccccc1)(C(F)(F)F)C(=O)N3 (stereo not drawn) [Example 14, N-[10,11-dimethyl-4-oxo-3-(trifluoromethyl)-2,5,7-triazatricyclo[6.4.0.0^2,6]dodeca-1(8),6,9,11-tetraen-3-yl]benzamide] | 3500 nM
19 | CS(=O)(=O)NC(=O)c1cccc2c1nc1n2C(NC(=O)CCC2CCCC2)(C(F)(F)F)C(=O)N1 (stereo not drawn) [Example 166, 3-(3-cyclopentylpropanamido)-N-methanesulfonyl-4-oxo-3-(trifluoromethyl)-2,5,7-triazatricyclo[6.4.0.0^2,6]dodeca-1(12),6,8,10-tetraene-9-carboxamide] | 400 nM
20 | COc1ccc(-c2cccc3c2nc2n3C(NC(=O)CCC3CCCC3)(C(F)(F)F)C(=O)N2)cc1 (single isomer, unassigned) [Example 230b, 3-cyclopentyl-N-[9-(4-methoxyphenyl)-4-oxo-3-(trifluoromethyl)-2,5,7-triazatricyclo[6.4.0.0^2,6]dodeca-1(12),6,8,10-tetraen-3-yl]propanamide] | 2880 nM
21 | O=C(CCC1CCCC1)NC1(C(F)(F)F)C(=O)Nc2nc3c(C(=O)O)cccc3n21 (stereo not drawn) [Example 160, 3-(3-cyclopentylpropanamido)-4-oxo-3-(trifluoromethyl)-2,5,7-triazatricyclo[6.4.0.0^2,6]dodeca-1(12),6,8,10-tetraene-9-carboxylic acid] | 740 nM
